In patent US20200163947A1 (Nortic Holdings Inc., priority 2018, published 2020):
Values after ≈ are worked out from the molar mass of the structure shown. Where two headings read alike, the source gives them in different places.

Columns and labels:
[1] = 25° C.; cited from earlier work
[2] = cited from earlier work
[3] = Single dose parallel plasma and CSF pharmacokinetics and relative bioavailability study in rats; type: in vivo; conditions: both sexes, Wistar, rat, plasma
Experimental: The pharmacokinetics study was performed in 6 healthy rats (3 males and 3 females). […] Blood samples were collected at 15 minutes, 30 minutes, and at 1, 2, 4, 6, 8, 12 and 24 hours post-dose. CSF samples were collected at 1, 2, 4, and 24 hours post-dose. All samples were analyzed using a validated analytical LC-MS method.

- bioavailability ([3]; 0.73 mg, continuous intravenous infusion, read-out: absolute bioavailability): 100%
- bioavailability ([3]; rats, 5.5 mg oral solution by oral gavage, Mean, read-out: Absolute Bioavailability (F %)): 22%
Compound: COCCOC(=O)C1=C(C)NC(C)=C(C(=O)OC(C)C)C1c1cccc([N+](=O)[O-])c1 (stereo not drawn) [nimodipine, isopropyl 2-methoxyethyl 1,4-dihydro-2,6-dimethyl-4-(m-nitrophenyl)-3,5-pyridinedicarboxylate]
- solubility in water [1]: 2.5 µg/mL (≈ 5.97 µM)
- half-life equivalent to earlier elimination rates ([2]; man): 1 to 2 h
- concentration in the cerebrospinal fluid ([2]; nimodipine-treated subarachnoid hemorrhage (SAH) patients): ≤ 12.5 ng/mL
- Cmax in patients with hepatic cirrhosis versus normal ([2]; oral administration): approximately double
